This is an account of results in publication PMC10458862, “Binding Specificity of a Novel Cyclo/Maltodextrin-Binding Protein and Its Role in the Cyclodextrin ABC Importer System from Thermoanaerobacterales” (Molecules, 2023).

Like-named read-outs stand apart in the source and are kept apart here. Marks after values point to notes of the source that are not given here.

Assay [1] concerns the target T1, MdxE (Thermoanaerobacter mathranii subsp. mathranii, UniProt A0ABM5LRQ5). Briefly: ITC measurements of MdxE-ligand binding. Also noted: species or system Thermoanaerobacter mathranii subsp. mathranii A3. Here is the method: To assess the binding affinities of MdxE toward different linear dextrins and CDs for the CM-CD pathway, functional experiments of MdxE-ligand complex formation were performed using isothermal titration calorimetry (ITC) to determine the dissociation constant (Kd) and enthalpy (ΔH) for ligand binding, as well as the Gibbs free energy (ΔG) contribution to the binding (Figure 3).
Purified MdxE at 4 μM was titrated with 0.8 mM CDs and linear dextrins using a VP-ITC calorimeter (Cytiva) at 55 °C. In all measurements, the sample cell and syringe were filled with protein and ligand solution, respectively, and the reference cell was filled with ultrapure water. The stirring speed of the sample syringe during measurements was 250 rpm. After baseline stabilization and an initial injection of 2 µL, 25 successive injections of 11 µL were carried out with a 5 min equilibration period between injections. Since both protein and ligands were in buffer C, the heat of dilution was neglected in the experiments. The resulting data were analyzed in triplicate (n = 3) using the Origin 7 ITC analysis v7.0 software from Microcal by fitting the titration curves to a single binding site model.

The target of assay [2] is EcoMBP. The note with it: cited from earlier work.
The target of assay [3] is AcyMBP. Also noted: method as in PMID 11053372. The following applies: cited from earlier work.
Assay [4] concerns the target T1, MdxE. The experiment in a line: ANS fluorescence determination of protein surface hydrophobicity (Ho) of MdxE-ligand complexes. Also noted: species or system Thermoanaerobacter mathranii subsp. mathranii A3. The note with it: for Ho (protein surface hydrophobicity, slope of RFU versus MdxE concentration): MdxE 2–14 µM, 350 µM ligand, 20 µM ANS, λmax = 485 nm, letters = Tukey groups (p < 0.05). How it is done: To evaluate the switching from an open to a closed form of productive MdxE-ligand complexes obtained with the sugars listed in Table 1, changes in the protein surface hydrophobicity (Ho) of MdxE-ligand complexes using the fluorescent probe 8-anilinonaphthalene-1-sulfonate (ANS) were determined (Figure 4).
The changes in H0 associated with the open-to-closed conformational changes of productive MdxE-ligand complexes were determined based on the method described previously, using a Nanodrop ND-3300 fluorospectrometer (Thermo Fisher, Waltham, MA, USA) controlled by ND-3300 v2.8.0 software with ANS as a fluorescence probe at an excitation wavelength of 365 nm and 400–600 nm as the range for emission scan. The fluorescent response was measured in RFU using buffer C for all solutions. […] For H0 measurements, MdxE-ligand complexes were heated at 55 °C for 10 min. Subsequently, ANS was added to form the (MdxE-ligand)-ANS complexes, and the solutions were heated again at 55 °C for 3 min; then, the solutions were cooled to room temperature. Data were analyzed in triplicate (n = 3), and H0 was estimated as the slope of the linear curve fitted for RFU versus MdxE concentrations plotted at the maximum emission wavelength (λ = 485 nm) using the emtrends() function from emmeans package in R [58, 59]. A Tukey’s test (α = 0.05) for multiple comparisons was performed to determine significant differences in H0 between CDs and linear dextrins tested. All fluorescence measurements were made at 22 °C.

The target of assay [5] is TvuCMBP. Further details: method as in PMID 17371546. The following applies: ND = not detected; cited from earlier work.
In assay [6] the target is CymE. Further details: method as in PMID 9573146. The following applies: ND = not detected; cited from earlier work.
Setting [7] is: ITC, 55 °C, 4 μM MdxE titrated with 0.8 mM ligand, single binding site model, n = 3, ND = not detected, read-out: Kd MdxE.

T1 sequence (A0ABM5LRQ5 entry or part of it): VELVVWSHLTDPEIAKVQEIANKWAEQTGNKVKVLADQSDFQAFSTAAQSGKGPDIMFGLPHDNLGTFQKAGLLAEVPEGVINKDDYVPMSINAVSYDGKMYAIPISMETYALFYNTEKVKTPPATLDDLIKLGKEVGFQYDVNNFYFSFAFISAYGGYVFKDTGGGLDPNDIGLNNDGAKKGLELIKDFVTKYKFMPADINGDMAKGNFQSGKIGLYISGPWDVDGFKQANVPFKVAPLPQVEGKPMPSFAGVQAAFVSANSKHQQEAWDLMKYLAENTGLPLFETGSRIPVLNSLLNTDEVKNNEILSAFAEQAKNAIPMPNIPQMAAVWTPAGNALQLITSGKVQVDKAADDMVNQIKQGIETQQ

Regarding `OC[C@H]1O[C@H](O[C@H]2[C@H](O)[C@@H](O)C(O)O[C@@H]2CO)[C@H](O)[C@@H](O)[C@@H]1O` (mixture of isomers) [G2, maltose], the “Kd MdxE” value in assay [1] (ITC, 55 °C, 4 μM MdxE titrated with 0.8 mM ligand, single binding site model, n = 3, ND = not detected) is recorded as “no binding interaction was observed”. The Kd in assay [2] was 1 µM; in assay [3] it was 1.5 µM; in assay [5], 0.41 µM. Also, the “Ho (protein surface hydrophobicity, slope of RFU versus MdxE concentration)” value in assay [4] is 15.1 ^d. The “MdxE-ligand complex formation by fluorescence measurements” value in assay [4] (fluorescence analysis with ANS) is recorded as “no MdxE-G2 complex formation was observed”.
`OC[C@H]1O[C@@H]2O[C@H]3[C@H](O)[C@@H](O)[C@@H](O[C@H]4[C@H](O)[C@@H](O)[C@@H](O[C@H]5[C@H](O)[C@@H](O)[C@@H](O[C@H]6[C@H](O)[C@@H](O)[C@@H](O[C@H]7[C@H](O)[C@@H](O)[C@@H](O[C@H]8[C@H](O)[C@@H](O)[C@@H](O[C@H]1[C@H](O)[C@H]2O)O[C@@H]8CO)O[C@@H]7CO)O[C@@H]6CO)O[C@@H]5CO)O[C@@H]4CO)O[C@@H]3CO` [β-CD]: the dissociation constant (Kd) in assay [1] (setting [7]) was 2.04 µM; in assay [6], 0.14 µM; in assay [2], 1 µM; in assay [5], 1.2 µM. The compound also gave a ΔH in assay [1] (ITC, 55 °C, ND = not detected) of -22.1 kJ/mol. Also, the “Ho (protein surface hydrophobicity, slope of RFU versus MdxE concentration)” value in assay [4] is on record as 41.8 ^b. Also, the “open-to-closed conformational change of MdxE” value in assay [4] (fluorescence analysis with ANS) is listed as “solely triggered”.
For the compound maltoheptaose [G7], in assay [1] (setting [7]), the Kd is 0.91 µM. Besides, in assay [1] (ITC, 55 °C, ND = not detected), the ΔG was -38 kJ/mol and the ΔH is -48.28 kJ/mol. Moreover, the Kd in assay [6] was 70 µM. Further, in assay [4], the “Ho (protein surface hydrophobicity, slope of RFU versus MdxE concentration)” value was 27.1 ^c.
Take `OC[C@H]1O[C@@H]2O[C@H]3[C@H](O)[C@@H](O)[C@@H](O[C@H]4[C@H](O)[C@@H](O)[C@@H](O[C@H]5[C@H](O)[C@@H](O)[C@@H](O[C@H]6[C@H](O)[C@@H](O)[C@@H](O[C@H]7[C@H](O)[C@@H](O)[C@@H](O[C@H]8[C@H](O)[C@@H](O)[C@@H](O[C@H]9[C@H](O)[C@@H](O)[C@@H](O[C@H]1[C@H](O)[C@H]2O)O[C@@H]9CO)O[C@@H]8CO)O[C@@H]7CO)O[C@@H]6CO)O[C@@H]5CO)O[C@@H]4CO)O[C@@H]3CO` [γ-CD]: the Kd in assay [1] (setting [7]) was 1.51 µM; in assay [6], 0.3 µM; in assay [5], 0.23 µM. For the same compound, the ΔH in assay [1] (ITC, 55 °C, ND = not detected) was -27.2 kJ/mol. Also, the “Ho (protein surface hydrophobicity, slope of RFU versus MdxE concentration)” value in assay [4] is reported as 24.5 ^c.
Regarding maltopentaose [G5], the Kd in assay [1] (setting [7]) is 2.44 µM; in assay [5], 0.2 µM. This compound also yielded a ΔG in assay [1] (ITC, 55 °C, ND = not detected) of -34.7 kJ/mol. In addition, the ΔH in assay [1] (ITC, 55 °C, ND = not detected) is -58.32 kJ/mol. In addition, the “Ho (protein surface hydrophobicity, slope of RFU versus MdxE concentration)” value in assay [4] is 27.3 ^c.
As to `OC[C@H]1O[C@@H]2O[C@H]3[C@H](O)[C@@H](O)[C@@H](O[C@H]4[C@H](O)[C@@H](O)[C@@H](O[C@H]5[C@H](O)[C@@H](O)[C@@H](O[C@H]6[C@H](O)[C@@H](O)[C@@H](O[C@H]7[C@H](O)[C@@H](O)[C@@H](O[C@H]1[C@H](O)[C@H]2O)O[C@@H]7CO)O[C@@H]6CO)O[C@@H]5CO)O[C@@H]4CO)O[C@@H]3CO` [α-CD], the Kd is 0.61 µM in assay [1], 0.02 µM in assay [6] and 0.73 µM in assay [5]. The compound also showed a ΔH in assay [1] (ITC, 55 °C, ND = not detected) of -28.6 kJ/mol. The “Ho (protein surface hydrophobicity, slope of RFU versus MdxE concentration)” value in assay [4] was 37.1 ^a. In assay [4] (fluorescence analysis with ANS), the “open-to-closed conformational change of MdxE” value is reported as “solely triggered”.
On to `OC[C@H]1O[C@H](O[C@H]2[C@H](O)[C@@H](O)[C@@H](O[C@H]3[C@H](O)[C@@H](O)C(O)O[C@@H]3CO)O[C@@H]2CO)[C@H](O)[C@@H](O)[C@@H]1O` (mixture of isomers) [G3, maltotriose], for which the Kd in assay [1] (setting [7]) is 3.02 µM; in assay [2] it was 0.2 µM; in assay [5], 0.97 µM. This compound registered a ΔG in assay [1] (ITC, 55 °C, ND = not detected) of -35.6 kJ/mol. Besides, in assay [1] (ITC, 55 °C, ND = not detected), the ΔH is -36.1 kJ/mol. Further, the “Ho (protein surface hydrophobicity, slope of RFU versus MdxE concentration)” value in assay [4] is 24.3 ^c.
Consider maltohexaose [G6], for which, in assay [1] (setting [7]), the Kd was 1.85 µM. In assay [1] (ITC, 55 °C, ND = not detected), this compound returned a ΔG of -36 kJ/mol and a ΔH of -54.31 kJ/mol. In assay [4], the “Ho (protein surface hydrophobicity, slope of RFU versus MdxE concentration)” value was 26.8 ^c.
